Kp data for two compounds are collected here from patent US9546175B2, “Organic compounds” (Intra-Cellular Therapies, Inc., priority 2014, dated 2017).

The series in a line: Pharmacokinetic analysis in mice, plasma and brain levels by LC-MS/MS. Type of series: in vivo. The following applies: mouse, male C57BL/6 mice, 10 mg/kg oral (PO), 0.25-2 h, read-out: B/P ratio (Brain AUC(0-2h)/Plasma AUC(0-2h)). Here is the method:
Animals: Male, C57BL/6 mice (Jackson Labs, 25-30 g in body weight) are provided by Jackson Laboratories. Up to five mice are housed per cage and are maintained under a 12 hour light/dark cycle with access to food and water ad libitum. All procedures for the handling and use of animals follow the guidelines of the Institutional Animal Care and Use Committee (IACUC) of Columbia University, in accordance with NIH guidelines. Eight week-old mice (N=3/dose level or treatment group) are used in the experiments.
Experimental Treatment: Compounds: Selected Compounds of the Invention are evaluated in the present study. […]
Compound Preparation: Powdered stocks of the test compound(s) are measured and dissolved in 3% 1N HCl, 5% Labrasol and 92% of 5% TPGS in 0.05M Citrate buffer (CB, pH 4.0). […]
Treatment of Animals: Mice (N=3 mice/dose/time point) receive a 10 mg/kg oral (PO) dose of the test compound(s) at time 0. […] Plasma and brain tissue samples are processed and analyzed by the analytical group using LC-MS/MS methods, as described below. […]
Each tube is vortexed, then centrifuged for 20 min at 15000 rpm using a Tomy benchtop centrifuge at 4° C., Standard is an internal standard used for LC-MS/MS quantitation. […]
Each compound is detected and quantified using Multiple Reaction Monitoring (MRM) of positive electrospray mode with a Waters QuattroMicro™ mass spectrometry system. […]

As to `CC(C)Cn1c(=O)n(C)c(=O)c2c(Nc3ccccc3)n(Cc3ccc(S(N)(=O)=O)cc3)nc21` [Example 1, 4-((7-Isobutyl-5-methyl-4,6-dioxo-3-(phenylamino)-4,5,6,7-tetrahydropyrazolo[3,4-d]pyrimidin-2-yl)methyl)benzenesulfonamide], the Kp was no more than 0.05. For `CC(C)Cn1c(=O)n(C)c(=O)c2c(Nc3ccccc3)n(Cc3ccc(C(=O)O)cc3)nc21` [Example 2, 4-((7-isobutyl-5-methyl-4,6-dioxo-3-(phenylamino)-4,5,6,7-tetrahydropyrazolo[3,4-d]pyrimidin-2-yl)methyl)benzoic acid] the value was no more than 0.05.
